Results: publication PMC10115808, “Parahydrogen-induced polarization allows 2000-fold signal enhancement in biologically active derivatives of the peptide-based drug octreotide” (Scientific Reports, 2023)
“Also recorded” adds a separate entry of the source.

Experiments:
HEK293 cells = experiment: Cell binding assay of TAMRA-conjugated octreotide variants on HEK293 cells (flow cytometry); design: species or system human; conditions: neat TAMRA versus fluorescence marked octreotide 1, Fig. S-24
Description: (§1) In order to check whether the modifications on the octreotide have an influence on its interaction with somatostatin receptors in living cells, a binding study on different human cell lines was performed. For the detection of the bound peptides, octreotide and the derivatives were further modified by attaching the fluorophore TAMRA to the N terminus. To prevent the fluorophore from interacting with the binding site of octreotide derivatives, a 4,7,10-trioxa-1,13-tridecanediamine succinate (TTDS) spacer was added between the peptide N terminus and the N-hydroxy succinimide (NHS)-activated fluorophore. Both, the linker and the fluorophore, were attached to the peptides by manual SPPS (Fig. 5).
(§2) Human lung cancer cells A549 and human embryonic kidney cells HEK293 were utilized for the binding studies. A549 are widely used in binding studies with somatostatin analogues[61],[62]. […]
(§3) A549 cells (DSMZ ACC 107) and HEK293 cell s (DSMZ ACC 308) were cultured in complete growth medium consisting of Dulbecco’s MEM with 10 % fetal bovine serum (FBS) and 1x penicillin/streptomycin. […] After incubation, the cells were washed three times with ice -cold PBS-F. Using a CytoFlexS flow cytometer, PE -fluorescence was measured. […]

A549 cells = experiment: Cell binding assay of TAMRA-conjugated octreotide variants on A549 cells (flow cytometry); design: species or system human; conditions: neat TAMRA versus fluorescence marked octreotide 1, Fig. S-23
Description: as §1, §2, §3

Question: Which “Binding efficiency (fluorescence) of TAMRA alone compared to TAMRA-linker-octreotide” value (HEK293 cells) does the source give for TAMRA here?
Answer: about half the fluorescence; also recorded: about two times reduced binding efficiency

Question: And the “Binding efficiency (fluorescence) of TAMRA alone compared to TAMRA-linker-octreotide” value (A549 cells)?
Answer: about half the fluorescence; also recorded: about two times reduced binding efficiency
